Measured values reported in PubChem BioAssay AID248 (DTP/NCI, 2004).
Toxic doses and inconclusive results are not listed. No stated cut-off is given here; in the data, active means T/C of 150% or more; inactive means T/C below 125%.

Tested on: L1210 leukemia ip in BDF1 mice, survival T/C
Test: NCI In Vivo Anticancer Drug Screen. Data for tumor model L1210 Leukemia (intraperitoneal) in B6D2F1 (BDF1) mice
Conditions: endpoint: mean survival time, higher = longer survival
In short: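 Transplanted-tumor mice were given test agent; controls received vehicle only. Survival readings from the two groups were divided (treated over control).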

[1] = dose: 100.0 mg/kg/injection, schedule: Q04DX003 (ip), vehicle: saline
[2] = dose: 200.0 mg/kg/injection, schedule: Q04DX003 (ip), vehicle: saline
[3] = dose: 400.0 mg/kg/injection, schedule: Q04DX003 (ip), vehicle: saline
[4] = dose: 50.0 mg/kg/injection, schedule: Q01DX009 (ip), vehicle: Klucel (hydroxypropylcellulose) (HPC)
[5] = dose: 100.0 mg/kg/injection, schedule: Q01DX009 (ip), vehicle: Klucel (hydroxypropylcellulose) (HPC)
[6] = dose: 100.0 mg/kg/injection, schedule: Q01DX001 (ip), vehicle: carboxymethylcellulose (CMC)
[7] = dose: 200.0 mg/kg/injection, schedule: Q01DX001 (ip), vehicle: carboxymethylcellulose (CMC)
[8] = dose: 400.0 mg/kg/injection, schedule: Q01DX001 (ip), vehicle: carboxymethylcellulose (CMC)
[9] = dose: 50.0 mg/kg/injection, schedule: Q01DX001 (ip), vehicle: carboxymethylcellulose (CMC)
[10] = dose: 100.0 mg/kg/injection, schedule: Q01DX009 (ip), vehicle: saline with Tween-80
[11] = dose: 200.0 mg/kg/injection, schedule: Q01DX009 (ip), vehicle: saline with Tween-80
[12] = dose: 400.0 mg/kg/injection, schedule: Q01DX009 (ip), vehicle: saline with Tween-80
[13] = dose: 200.0 mg/kg/injection, schedule: Q01DX009 (ip), vehicle: Klucel (hydroxypropylcellulose) (HPC)
[14] = dose: 100.0 mg/kg/injection, schedule: Q01DX001 (ip), vehicle: saline
[15] = dose: 200.0 mg/kg/injection, schedule: Q01DX001 (ip), vehicle: saline
[16] = dose: 400.0 mg/kg/injection, schedule: Q01DX001 (ip), vehicle: saline
[17] = dose: 100.0 mg/kg/injection, schedule: Q04DX002 (ip), vehicle: saline with Tween-80
[18] = dose: 200.0 mg/kg/injection, schedule: Q04DX002 (ip), vehicle: saline with Tween-80
[19] = dose: 25.0 mg/kg/injection, schedule: Q01DX009 (ip), vehicle: saline with Tween-80
[20] = dose: 50.0 mg/kg/injection, schedule: Q01DX009 (ip), vehicle: saline with Tween-80

Measured: T/C

C/C(=N/NC(=O)c1ccncc1)C(=O)O
inactive: dose: 25.0 mg/kg/injection, schedule: Q04DX003 (ip), vehicle: saline with Tween-80 92 % of control | dose: 50.0 mg/kg/injection, schedule: Q04DX003 (ip), vehicle: saline with Tween-80 93 % of control | dose: 100.0 mg/kg/injection, schedule: Q04DX003 (ip), vehicle: saline with Tween-80 101 % of control

CCOC(=O)/C(C)=N/Nc1nn[nH]n1
inactive: [1] 99 % of control | [2] 99 % of control | [3] 86 % of control

CCOc1c(Br)cc(Br)cc1/C=N/NS(=O)(=O)c1ccc(C)cc1
inactive: [4] 103 % of control | [5] 105 % of control | dose: 100.0 mg/kg/injection, schedule: Q04DX003 (ip), vehicle: Klucel (hydroxypropylcellulose) (HPC) 101 % of control | dose: 200.0 mg/kg/injection, schedule: Q04DX003 (ip), vehicle: Klucel (hydroxypropylcellulose) (HPC) 109 % of control | dose: 400.0 mg/kg/injection, schedule: Q04DX003 (ip), vehicle: Klucel (hydroxypropylcellulose) (HPC) 92 % of control

Cc1nnc(S(=O)(=O)c2ccc(N=Nc3c(N)nc(N)nc3N)cc2)s1
inactive: [6] 92 % of control | [7] 97 % of control | [8] 94 % of control

CC1(O)CCCCC1c1ccccc1 (stereo not given)
inactive: dose: 100.0 mg/kg/injection, schedule: Q04DX003 (ip), vehicle: other 104 % of control | dose: 200.0 mg/kg/injection, schedule: Q04DX003 (ip), vehicle: other 95 % of control | dose: 400.0 mg/kg/injection, schedule: Q04DX003 (ip), vehicle: other 93 % of control

ClCCN(CCCl)c1ccc(C=Nc2cccc(Cl)c2)cc1
inactive: [9] 100 % of control | [6] 100 % of control | [7] 105 % of control | [8] 105 % of control

ClCC1COC(CCc2ccccc2)O1 (stereo not given)
inactive: dose: 222.0 mg/kg/injection, schedule: Q01DX Z (ip), vehicle: saline 95 % of control | dose: 333.0 mg/kg/injection, schedule: Q01DX Z (ip), vehicle: saline 95 % of control | dose: 500.0 mg/kg/injection, schedule: Q01DX Z (ip), vehicle: saline 113 % of control

CNC(=S)Nc1ccccc1
inactive: dose: 100.0 mg/kg/injection, schedule: Q04DX003 (ip), vehicle: carboxymethylcellulose (CMC) 95 % of control | dose: 200.0 mg/kg/injection, schedule: Q04DX003 (ip), vehicle: carboxymethylcellulose (CMC) 96 % of control

CCOc1ccc(NC(=S)N=Nc2c(O)[nH]c3c(Cl)cc(Cl)cc23)cc1
inactive: [1] 91 % of control | [2] 89 % of control | [3] 89 % of control

CC(SC(C)C(=O)NN=C1CCSCC1)C(=O)NN=C1CCSCC1 (stereo not given)
inactive: dose: 55.0 mg/kg/injection, schedule: Q01DX Z (ip), vehicle: methylcellulose (MC) 104 % of control | dose: 83.0 mg/kg/injection, schedule: Q01DX Z (ip), vehicle: methylcellulose (MC) 91 % of control | dose: 125.0 mg/kg/injection, schedule: Q01DX Z (ip), vehicle: methylcellulose (MC) 114 % of control

Cc1cc(C(=O)Nc2ccc(NC3=NCCN3)cc2)cc(C(=O)Nc2ccc(NC3=NCCN3)cc2)c1
inactive: dose: 3.0 mg/kg/injection, schedule: Q01DX Z (ip), vehicle: saline 103 % of control | dose: 6.0 mg/kg/injection, schedule: Q01DX Z (ip), vehicle: saline 103 % of control | dose: 12.0 mg/kg/injection, schedule: Q01DX Z (ip), vehicle: saline 100 % of control | dose: 15.0 mg/kg/injection, schedule: Q01DX Z (ip), vehicle: saline 110 % of control

O=C1c2ccccc2C(=O)N1CNc1ccc(Cc2ccc(NCN3C(=O)c4ccccc4C3=O)c(Cl)c2)cc1Cl
inactive: [10] 92 % of control | [1] 101 % of control | [11] 92 % of control | [2] 96 % of control | [12] 92 % of control | [3] 96 % of control

Cc1cccc(NC(=O)C(Br)C(Br)c2ccccc2)c1C (stereo not given)
inactive: [5] 94 % of control | [13] 105 % of control | dose: 400.0 mg/kg/injection, schedule: Q01DX009 (ip), vehicle: Klucel (hydroxypropylcellulose) (HPC) 105 % of control

COc1ccc2[nH]c3c(c(=O)c2c1)CCCC3
inactive: [9] 101 % of control | [6] 95 % of control | [7] 100 % of control | [8] 97 % of control

O=C1/C(=C\c2ccccc2)C2CCC(C2)/C1=C\c1ccccc1
inactive: [4] 99 % of control | [5] 102 % of control | [13] 99 % of control

c1ccc([P+]2(c3ccccc3)CC[P+](c3ccccc3)(c3ccccc3)CC2)cc1
inactive: dose: 9.5 mg/kg/injection, schedule: Q01DX001 (ip), vehicle: saline 103 % of control | dose: 19.0 mg/kg/injection, schedule: Q01DX001 (ip), vehicle: saline 101 % of control | dose: 38.0 mg/kg/injection, schedule: Q01DX001 (ip), vehicle: saline 97 % of control | dose: 75.0 mg/kg/injection, schedule: Q01DX001 (ip), vehicle: saline 100 % of control

CC(=O)OC1CCC2(C)C3CCC4(C)C(CCC45OC5(C)OC(C)=O)C3CC3OC32C1 (stereo not given)
inactive: dose: 50.0 mg/kg/injection, schedule: Q01DX001 (sc), vehicle: steriod suspending solution 111 % of control | dose: 100.0 mg/kg/injection, schedule: Q01DX001 (sc), vehicle: steriod suspending solution 98 % of control | dose: 200.0 mg/kg/injection, schedule: Q01DX001 (sc), vehicle: steriod suspending solution 106 % of control | dose: 400.0 mg/kg/injection, schedule: Q01DX001 (sc), vehicle: steriod suspending solution 101 % of control

COc1ccc(C(C)(C)C#N)cc1
inactive: dose: 50.0 mg/kg/injection, schedule: Q01DX001 (ip), vehicle: saline 102 % of control | [14] 100 % of control | [15] 100 % of control | [16] 97 % of control

O=C(O)CCN1C(=O)c2ccccc2C1=O
inactive: [10] 96 % of control | [11] 95 % of control | [12] 102 % of control

O=C(O)C1CCCCN1[N+](=O)[O-] (stereo not given)
inactive: [14] 96 % of control | [15] 100 % of control | [16] 100 % of control

CCOC(=O)c1ccc(OC(=O)Nc2ccc(OC)cc2OC)cc1
inactive: [5] 101 % of control

NCc1c[nH]c2ccccc12
inactive: dose: 44.0 mg/kg/injection, schedule: Q01DX Z (ip), vehicle: water 107 % of control | dose: 66.0 mg/kg/injection, schedule: Q01DX Z (ip), vehicle: water 105 % of control | [14] 95 % of control | dose: 100.0 mg/kg/injection, schedule: Q01DX Z (ip), vehicle: water 105 % of control | [1] 98 % of control | dose: 150.0 mg/kg/injection, schedule: Q01DX Z (ip), vehicle: water 105 % of control | [15] 92 % of control | [2] 95 % of control | [16] 89 % of control | [3] 88 % of control

N#C/C(=C\C=C\C1CCCCC1)C1CCC([N+](=O)[O-])CC1 (stereo not given)
inactive: [17] 105 % of control | [18] 94 % of control | dose: 400.0 mg/kg/injection, schedule: Q04DX002 (ip), vehicle: saline with Tween-80 91 % of control

C/C(=N\N)c1ccc(Cl)cc1
inactive: dose: 6.25 mg/kg/injection, schedule: Q01DX009 (ip), vehicle: saline with Tween-80 93 % of control | dose: 12.5 mg/kg/injection, schedule: Q01DX009 (ip), vehicle: saline with Tween-80 101 % of control | [19] 96 % of control

CCN(CC)C(=O)c1cccc(COc2ccc(N3C(N)=NC(N)=NC3(C)C)cc2Cl)c1
inactive: [19] 107 % of control | [20] 107 % of control

CC(C)(C)OC(=O)N1CCCC1C(=O)Oc1ccc([N+](=O)[O-])cc1 (stereo not given)
inactive: [19] 102 % of control | [20] 88 % of control | [10] 93 % of control

CCOC(=O)c1cc(Cl)cc(Cl)c1N=NN(C)C
inactive: [20] 102 % of control | [11] 102 % of control

O=c1[nH]c(=S)c2c3c(sc2[nH]1)CCCC3
inactive: dose: 100.0 mg/kg/injection, schedule: Q04DX003 (ip), vehicle: saline sonified 95 % of control | dose: 200.0 mg/kg/injection, schedule: Q04DX003 (ip), vehicle: saline sonified 97 % of control | dose: 400.0 mg/kg/injection, schedule: Q04DX003 (ip), vehicle: saline sonified 93 % of control

COC(=O)c1cc([N+](=O)[O-])cc([N+](=O)[O-])c1O
inactive: [4] 87 % of control | [17] 100 % of control | [18] 105 % of control
